Data from patent publication US20230391763A1, “MODULATORS OF THE INTEGRATED STRESS RESPONSE PATHWAY” (Evotec International GmbH, priority 2020, published 2023).

Tested on: Tunicamycin induced ISR (ATF4 signal ratio between nucleus and cytoplasm) in wild-type HEK293 cells
Assay: HEK-ATF4 High Content Imaging assay
Assay type: cell-based
Details: Homo sapiens, prevention of Tunicamycin induced ISR, 6 h incubation, ATF4 immunofluorescence nucleus/cytoplasm ratio
Method: HEK-ATF4 High Content Imaging Assay
Example compounds were tested in the HEK-ATF4 High Content Imaging assay to assess their pharmacological potency to prevent Tunicamycin induced ISR. Wild-type HEK293 cells were plated in 384-well imaging assay plates at a density of 12,000 cells per well in growth medium (containing DMEM/F12, 10% FBS, 2 mM L-Glutamine, 100 U/mL Penicillin—100 μg/mL Streptomycin) and incubated at 37° C., 5% CO2. 24 h later, the medium was changed to 50 μL assay medium per well (DMEM/F12, 0.3% FBS, 2 mM L-Glutamine, 100 U/mL Penicillin—100 μg/mL Streptomycin). Example compounds were serially diluted in DMSO, spotted into intermediate plates and prediluted with assay medium containing 3.3 μM Tunicamycin to give an 11-fold excess of final assay concentration. In addition to the example compound testing area, the plates also contained multiples of control wells for assay normalization purposes, wells containing Tunicamycin but no example compounds (High control), as well as wells containing neither example compound nor Tunicamycin (Low control). The assay was started by transferring 5 μL from the intermediate plate into the assay plates, followed by incubation for 6 h at 37° C., 5% CO2. Subsequently, cells were fixed (4% PFA in PBS, 20 min at r.t.) and submitted to indirect ATF4 immunofluorescence staining (primary antibody rabbit anti ATF4, clone D4B8, Cell Signaling Technologies; secondary antibody Alexa Fluor 488 goat anti-rabbit IgG (H+L), Thermofisher Scientific). Nuclei were stained using Hoechst dye (Thermofisher Scientific), and plates were imaged on an Opera Phenix High Content imaging platform equipped with 405 nm and 488 nm excitation. Finally, images were analyzed using script based algorithms. The main readout HEK-ATF4 monitored the ATF4 signal ratio between nucleus and cytoplasm. Tunicamycin induced an increase in the overall ATF4 ratio signal, which was prevented by ISR modulating example compounds. In addition, HEK-CellCount readout was derived from counting the number of stained nuclei corresponding to healthy cells. This readout served as an internal toxicity control.

Structure (SMILES)	IC50 [nM]
O=C(N[C@H]1CC[C@H](c2nnc(OCCOC(F)(F)F)o2)NC1)c1ccc2c(c1)OC(F)(F)O2 [Example 30, 2,2-difluoro-N-[(3S,6R)-6-{5-[2-(trifluoromethoxy)ethoxy]-1,3,4-oxadiazol-2-yl}piperidin-3-yl]-2H-1,3-benzodioxole-5-carboxamide]	500 to 2000
O=C(N[C@H]1CC[C@H](c2nnc(OCCOC(F)(F)F)o2)NC1)c1ccc(Cl)c(C(F)(F)F)c1 [Example 37, 4-chloro-N-[(3S,6R)-6-{5-[2-(trifluoromethoxy)ethoxy]-1,3,4-oxadiazol-2-yl}piperidin-3-yl]-3-(trifluoromethyl)benzamide]	2000 to 15000
O=C(N[C@H]1CC[C@H](c2nnc(OCCOC(F)(F)F)o2)NC1)c1cc2cc(Cl)ccn2c1 [Example 20, 7-chloro-N-[(3S,6R)-6-{5-[2-(trifluoromethoxy)ethoxy]-1,3,4-oxadiazol-2-yl}piperidin-3-yl]indolizine-2-carboxamide]	1 to 500
O=C(N[C@H]1CC[C@H](c2nnc(OCCOC(F)(F)F)o2)NC1)c1cc2ccc(Cl)cc2cn1 [Example 5, 7-chloro-N-[(3S,6R)-6-{5-[2-(trifluoromethoxy)ethoxy]-1,3,4-oxadiazol-2-yl}piperidin-3-yl]isoquinoline-3-carboxamide]	500 to 2000
Cn1c(C(=O)N[C@H]2CC[C@H](c3nnc(OCCOC(F)(F)F)o3)NC2)cc2ccc(C(F)(F)F)cc21 [Example 42, 1-methyl-N-[(3S,6R)-6-[5-[2-(trifluoromethoxy)ethoxy]-1,3,4-oxadiazol-2-yl]-3-piperidyl]-6-(trifluoromethyl)indole-2-carboxamide]	500 to 2000
O=C(N[C@H]1CC[C@H](c2nnc(OCCOC(F)(F)F)o2)NC1)c1ccc(OC(F)(F)F)cc1 [Example 29, 4-(trifluoromethoxy)-N-[(3S,6R)-6-{5-[2-(trifluoromethoxy)ethoxy]-1,3,4-oxadiazol-2-yl}piperidin-3-yl]benzamide]	1 to 500
Cc1cc(C(=O)N[C@H]2CC[C@H](c3nnc(OCCOC(F)(F)F)o3)NC2)sc1C [Example 26, 4,5-dimethyl-N-[(3S,6R)-6-{5-[2-(trifluoromethoxy)ethoxy]-1,3,4-oxadiazol-2-yl}piperidin-3-yl]thiophene-2-carboxamide]	2000 to 15000
Cc1ccc(C(=O)N[C@H]2CC[C@H](c3nnc(OCCOC(F)(F)F)o3)NC2)cc1Cl [Example 44, 3-chloro-4-methyl-N-[(3S,6R)-6-[5-[2-(trifluoromethoxy)ethoxy]-1,3,4-oxadiazol-2-yl]-3-piperidyl]benzamide]	500 to 2000
O=C(N[C@H]1CC[C@H](c2nnc(OCCOC(F)(F)F)o2)NC1)c1ccc(C(F)(F)F)c(F)c1 [Example 33, 3-fluoro-N-[(3S,6R)-6-{5-[2-(trifluoromethoxy)ethoxy]-1,3,4-oxadiazol-2-yl}piperidin-3-yl]-4-(trifluoromethyl)benzamide]	500 to 2000
O=C(N[C@H]1CC[C@H](c2nnc(OCCOC(F)(F)F)o2)NC1)c1ccc(Cl)c(Cl)n1 [Example 39, 5,6-dichloro-N-[(3S,6R)-6-{5-[2-(trifluoromethoxy)ethoxy]-1,3,4-oxadiazol-2-yl}piperidin-3-yl]pyridine-2-carboxamide]	2000 to 15000
O=C(N[C@H]1CC[C@H](c2nnc(OCCOC(F)(F)F)o2)NC1)c1ccc(OC(F)(F)F)nc1 [Example 16, 6-(trifluoromethoxy)-N-[(3S,6R)-6-{5-[2-(trifluoromethoxy)ethoxy]-1,3,4-oxadiazol-2-yl}piperidin-3-yl]pyridine-3-carboxamide]	500 to 2000
O=C(N[C@H]1CC[C@H](c2nnc([C@H]3C[C@@H](OC(F)(F)F)C3)o2)NC1)c1cnc2cc(Cl)ccc2c1 [Example 51, 7-chloro-N-[(3S,6R)-6-{5-[(1s,3s)-3-(trifluoromethoxy)cyclobutyl]-1,3,4-oxadiazol-2-yl}piperidin-3-yl]quinoline-3-carboxamide]	1 to 500
O=C(N[C@H]1CC[C@H](c2nnc(OCCOC(F)(F)F)o2)NC1)c1cc2cc(Cl)ccn2n1 [Example 12, 5-chloro-N-[(3S,6R)-6-{5-[2-(trifluoromethoxy)ethoxy]-1,3,4-oxadiazol-2-yl}piperidin-3-yl]pyrazolo[1,5-a]pyridine-2-carboxamide]	500 to 2000
O=C(N[C@H]1CO[C@H](c2nnc(OCCOC(F)(F)F)o2)OC1)c1cnc2cc(Cl)ccc2c1 [Example 55, 7-chloro-N-[trans-2-{5-[2-(trifluoromethoxy)ethoxy]-1,3,4-oxadiazol-2-yl}-1,3-dioxan-5-yl]quinoline-3-carboxamide]	1 to 500
O=C(N[C@H]1CC[C@H](c2nnc(OCCOC(F)(F)F)o2)NC1)c1ccc2nc(C(F)(F)F)ccc2c1 [Example 14, N-[(3S,6R)-6-{5-[2-(trifluoromethoxy)ethoxy]-1,3,4-oxadiazol-2-yl}piperidin-3-yl]-2-(trifluoromethyl)quinoline-6-carboxamide]	2000 to 15000
O=C(N[C@H]1CC[C@H](c2nnc(OCCOC(F)(F)F)o2)NC1)c1cc2ccc(Cl)cn2c1 [Example 21, 6-chloro-N-[(3S,6R)-6-{5-[2-(trifluoromethoxy)ethoxy]-1,3,4-oxadiazol-2-yl}piperidin-3-yl]indolizine-2-carboxamide]	1 to 500
O=C(N[C@@H]1CC[C@@H](c2nnc(OCCOC(F)(F)F)o2)NC1)c1cnc2cc(Cl)ccc2c1 [Example 49, 7-chloro-N-[(3R,6S)-6-[5-[2-(trifluoromethoxy)ethoxy]-1,3,4-oxadiazol-2-yl]-3-piperidyl]quinoline-3-carboxamide]	1 to 500
Cc1ccc(C(=O)N[C@H]2CC[C@H](c3nnc(OCCOC(F)(F)F)o3)NC2)cc1 [Example 27, 4-methyl-N-[(3S,6R)-6-{5-[2-(trifluoromethoxy)ethoxy]-1,3,4-oxadiazol-2-yl}piperidin-3-yl]benzamide]	2000 to 15000
O=C(N[C@H]1CC[C@H](c2nnc(OCCOC(F)(F)F)o2)NC1)c1ccc(OC(F)(F)F)c(Cl)c1 [Example 34, 3-chloro-4-(trifluoromethoxy)-N-[(3S,6R)-6-{5-[2-(trifluoromethoxy)ethoxy]-1,3,4-oxadiazol-2-yl}piperidin-3-yl]benzamide]	500 to 2000
O=C(N[C@H]1CC[C@H](c2nnc(OCCOC(F)(F)F)o2)NC1)c1cc(F)c(Cl)c(F)c1 [Example 32, 4-chloro-3,5-difluoro-N-[(3S,6R)-6-{5-[2-(trifluoromethoxy)ethoxy]-1,3,4-oxadiazol-2-yl}piperidin-3-yl]benzamide]	2000 to 15000
O=C(N[C@H]1CC[C@H](c2nnc(OCCOC(F)(F)F)o2)NC1)c1ccc(F)c(C(F)(F)F)c1 [Example 35, 4-fluoro-N-[(3S,6R)-6-{5-[2-(trifluoromethoxy)ethoxy]-1,3,4-oxadiazol-2-yl}piperidin-3-yl]-3-(trifluoromethyl)benzamide]	2000 to 15000
Cc1ccc(C(=O)N[C@H]2CC[C@H](c3nnc(OCCOC(F)(F)F)o3)NC2)cc1C [Example 25, 3,4-dimethyl-N-[(3S,6R)-6-{5-[2-(trifluoromethoxy)ethoxy]-1,3,4-oxadiazol-2-yl}piperidin-3-yl]benzamide]	2000 to 15000
O=C(N[C@H]1CC[C@H](c2nnc(-c3ccc(Cl)cc3)o2)NC1)c1cnc2cc(Cl)ccc2c1 [Example 46, 7-chloro-N-[(3S,6R)-6-[5-(4-chlorophenyl)-1,3,4-oxadiazol-2-yl]-3-piperidyl]quinoline-3-carboxamide]	1 to 500
O=C(N[C@H]1CC[C@H](c2nnc(OCCOC(F)(F)F)o2)NC1)c1ccc2cc(Cl)cnc2c1 [Example 10, 3-chloro-N-[(3S,6R)-6-{5-[2-(trifluoromethoxy)ethoxy]-1,3,4-oxadiazol-2-yl}piperidin-3-yl]quinoline-7-carboxamide]	500 to 2000
Cc1cc(C(=O)N[C@H]2CC[C@H](c3nnc(OCCOC(F)(F)F)o3)NC2)ccc1Cl [Example 31, 4-chloro-3-methyl-N-[(3S,6R)-6-{5-[2-(trifluoromethoxy)ethoxy]-1,3,4-oxadiazol-2-yl}piperidin-3-yl]benzamide]	2000 to 15000
O=C(N[C@H]1CC[C@H](c2nnc(OCCOC(F)(F)F)o2)NC1)c1ccc(Cl)c(Cl)c1 [Example 17, 3,4-dichloro-N-[(3S,6R)-6-{5-[2-(trifluoromethoxy)ethoxy]-1,3,4-oxadiazol-2-yl}piperidin-3-yl]benzamide]	500 to 2000
O=C(N[C@H]1CC[C@H](c2nnc(OCCOC(F)(F)F)o2)NC1)c1cnc2c(F)c(Cl)ccc2c1 [Example 19, 7-chloro-8-fluoro-N-[(3S,6R)-6-{5-[2-(trifluoromethoxy)ethoxy]-1,3,4-oxadiazol-2-yl}piperidin-3-yl]quinoline-3-carboxamide]	1 to 500
Cc1cc(C)cc(C(=O)N[C@H]2CC[C@H](c3nnc(OCCOC(F)(F)F)o3)NC2)c1 [Example 24, 3,5-dimethyl-N-[(3S,6R)-6-{5-[2-(trifluoromethoxy)ethoxy]-1,3,4-oxadiazol-2-yl}piperidin-3-yl]benzamide]	2000 to 15000
